Data on nine compounds can be found in PubChem BioAssay (NCI).

Test systems include NCI-H522 lung; OVCAR-4 ovarian; ACHN renal; UACC-62 melanoma; SK-MEL-28 melanoma; HOP-92 NSCLC; SW-620 colon; SF-539 CNS; SF-268 CNS; HCT-116 colon.
Holding throughout (assay): NCI-60 cell line screen, 48 h

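Interpolation was linear, between the two tested concentrations surrounding the appropriate level; five concentrations were tested over 48 hours in 96-well plates. Abbreviation: GI50, concentration required for 50% inhibition of growth. TGI denotes the concentration required for complete inhibition of growth.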

`O=C(N/C(=C\c1c(O)ccc2ccccc12)c1nc2ccccc2[nH]1)c1ccccc1`: the TGI in the assay with NCI-H522 lung, with OVCAR-4 ovarian, in the assay with ACHN renal, in the assay on UACC-62 melanoma, in the assay on SK-MEL-28 melanoma and in the assay on HOP-92 NSCLC was above 100 µM throughout. In addition, the TGI in the assay on SW-620 colon, in the assay with SF-539 CNS, with SF-268 CNS and in the assay on HCT-116 colon was above 100 µM in each case.

`Cn1cnc([N+](=O)[O-])c1Sc1nnnn1C`: the TGI in the assay on NCI-H522 lung is 20.5 µM; in the assay on OVCAR-4 ovarian it was 30.8 µM; with ACHN renal, 30.5 µM; in the assay on UACC-62 melanoma, 32 µM; in the assay on SK-MEL-28 melanoma it was 27.3 µM; with HOP-92 NSCLC, 25.2 µM. Also, the TGI was 26 µM in the assay on SW-620 colon, 36.3 µM in the assay on SF-539 CNS, 50.2 µM in the assay with SF-268 CNS and 28 µM in the assay with HCT-116 colon.

For `CCN(CCCl)CCCCCNc1c2ccccc2nc2ccc(OC)cc12`, the TGI with NCI-H522 lung came to 2.03 µM; in the assay on OVCAR-4 ovarian, 3.42 µM; with ACHN renal, 3.09 µM; with UACC-62 melanoma, 1.8 µM; in the assay on SK-MEL-28 melanoma, 12.1 µM; in the assay with HOP-92 NSCLC, 3.21 µM. For the same compound, the TGI with SW-620 colon turned out to be 1.63 µM; in the assay on SF-539 CNS it was 2.65 µM; with SF-268 CNS, 5.98 µM; with HCT-116 colon it was 1.43 µM.

For the compound `O=C(O)C(Br)C(Br)C(=O)O` (stereo not given), the TGI in the assay on NCI-H522 lung, in the assay with OVCAR-4 ovarian, in the assay with ACHN renal, in the assay on UACC-62 melanoma, in the assay with SK-MEL-28 melanoma and with HOP-92 NSCLC was above 100 µM throughout. Also, the TGI in the assay with SW-620 colon, in the assay with SF-539 CNS, in the assay on SF-268 CNS and in the assay with HCT-116 colon was above 100 µM each time.

For `CCC#CC[C@H](O)C/C=C1/C(=O)C=C[C@@H]1C/C=C\CCCC(=O)OC`, the GI50 was 0.673 µM in the assay on NCI-H522 lung; 2.25 µM with OVCAR-4 ovarian; 0.947 µM in the assay with ACHN renal; 1.04 µM with UACC-62 melanoma; 1.12 µM with SK-MEL-28 melanoma; 1.52 µM in the assay on HOP-92 NSCLC. The GI50 was 1.49 µM in the assay on SW-620 colon, 1.31 µM with SF-539 CNS, 2.05 µM with SF-268 CNS and 0.235 µM in the assay with HCT-116 colon. Moreover, the TGI in the assay on NCI-H522 lung stood at 1.68 µM; with OVCAR-4 ovarian, 8.64 µM; with ACHN renal, 2.07 µM; in the assay with UACC-62 melanoma it was 2.82 µM; with SK-MEL-28 melanoma it was 3.25 µM; with HOP-92 NSCLC, 5.81 µM. For the same compound, the TGI in the assay with SW-620 colon was found to be 4.83 µM; in the assay on SF-539 CNS it was 3.79 µM; in the assay with SF-268 CNS, 9.22 µM; with HCT-116 colon, 1.1 µM.

With `COc1ccc(OC)c(NC(=O)c2cccc(NC3=C(Cl)C(=O)N(Cc4ccccc4)C3=O)c2)c1`, the GI50 is above 100 µM in the assay on NCI-H522 lung; above 100 µM in the assay on OVCAR-4 ovarian; above 100 µM in the assay with ACHN renal; above 63.1 µM in the assay with UACC-62 melanoma; above 100 µM in the assay with SK-MEL-28 melanoma; above 100 µM with HOP-92 NSCLC. For the same compound, the GI50 was above 100 µM in the assay with SW-620 colon, above 94.9 µM with SF-539 CNS, above 69.2 µM in the assay on SF-268 CNS and above 86.2 µM in the assay on HCT-116 colon. Further, the TGI in the assay with NCI-H522 lung, in the assay on OVCAR-4 ovarian, with ACHN renal, in the assay on UACC-62 melanoma, in the assay on SK-MEL-28 melanoma and in the assay with HOP-92 NSCLC was above 100 µM throughout. Besides, the TGI in the assay on SW-620 colon, with SF-539 CNS, with SF-268 CNS and in the assay on HCT-116 colon was above 100 µM in each case.

With `CC(CN1CC(=O)NC(=O)C1)N1CC(=O)NC(=O)C1` (stereo not given), the TGI in the assay with NCI-H522 lung was above 724 µM; with OVCAR-4 ovarian, above 750 µM; in the assay with ACHN renal it was above 750 µM; in the assay with UACC-62 melanoma it was above 686 µM; with SK-MEL-28 melanoma it was above 750 µM; with HOP-92 NSCLC, 732 µM. The TGI in the assay with SW-620 colon, in the assay on SF-539 CNS, in the assay on SF-268 CNS and in the assay with HCT-116 colon was above 750 µM in each case.

Regarding `Cc1cc(C(=O)Nc2cc(Oc3ccc4nc(NC(=O)C5CC5)cn4n3)ccc2C)n(C)n1`, the GI50 is above 10 µM with NCI-H522 lung; above 10 µM in the assay on OVCAR-4 ovarian; above 10 µM in the assay on ACHN renal; above 10 µM in the assay on UACC-62 melanoma; above 10 µM in the assay on SK-MEL-28 melanoma; 3.27 µM in the assay on HOP-92 NSCLC. For the same compound, the GI50 with SW-620 colon was above 10 µM; in the assay on SF-539 CNS, 3.35 µM; in the assay with SF-268 CNS it was above 10 µM; in the assay with HCT-116 colon, 5.66 µM. Also, the TGI in the assay with NCI-H522 lung, in the assay on OVCAR-4 ovarian, in the assay with ACHN renal, with UACC-62 melanoma, in the assay with SK-MEL-28 melanoma and with HOP-92 NSCLC was above 10 µM in each case. In addition, the TGI in the assay on SW-620 colon, in the assay on SF-539 CNS, in the assay with SF-268 CNS and in the assay on HCT-116 colon was above 10 µM in each case.

Turning to `CCCCC[C@H]1CC=C2C(=O)C=C[C@@H]2CC=CCCCC(=O)O[C@@H](CCCCC)CC=C2C(=O)C=C[C@@H]2CC=CCCCC(=O)O[C@@H](CCCCC)CC=C2C(=O)C=C[C@@H]2CC=CCCCC(=O)O1`, the GI50 with NCI-H522 lung is 0.218 µM; in the assay with OVCAR-4 ovarian it was 0.317 µM; in the assay with ACHN renal it was 0.438 µM; in the assay with UACC-62 melanoma, 0.204 µM; in the assay with SK-MEL-28 melanoma, 0.311 µM; with HOP-92 NSCLC, 0.359 µM. Moreover, the GI50 in the assay on SW-620 colon is 0.373 µM; in the assay with SF-539 CNS it was 0.322 µM; with SF-268 CNS, 0.305 µM; in the assay on HCT-116 colon, 0.221 µM. Also, the TGI in the assay with NCI-H522 lung is 0.797 µM; in the assay on OVCAR-4 ovarian it was above 8.75 µM; in the assay on ACHN renal, above 8.75 µM; with UACC-62 melanoma, 0.545 µM; with SK-MEL-28 melanoma it was 1.74 µM; with HOP-92 NSCLC it was 1.82 µM. Further, the TGI with SW-620 colon was 1.51 µM; with SF-539 CNS it was above 8.75 µM; with SF-268 CNS, 7.8 µM; in the assay with HCT-116 colon it was 0.906 µM.
